According to patent US20110177178A1, “Extracts of Deschampsia antarctica Desv. with antineoplastic activity” (Uxmal S.A., Chile, priority 2007, published 2011):

Tested on: LoVo colorectal cancer cells
Assay: in vitro growth / proliferation of LoVo colon cancer cells
Type: cell-based, human
Details: for antineoplastic activity of peaks and peak combinations: 450 uM, FIG. 14
Description: FIG. 2. […] The extracts were prepared with water, then dried and dissolved in methanol. Control contains no extract added and the methanol control is a control containing 5% methanol as was used to dissolve the dried aqueous extract. FIG. 3. Effects of ethyl acetate (a and b) and methanol (c and d) extracts at to concentration of 75 ug/ml on LoVo colorectal cancer cells (a and c) and we38 human fetal fibroblast cells (b and d). FIG. 4. […] An assay to test the biological activity of individual peaks was carried out using the same antineoplastic test already evaluated for the whole extract. The main purpose of these studies was to identify who are the peaks with the highest biological activity and to determine a synergistic effect among the different compounds.

SMILES	antineoplastic activity of peaks and peak combinations	concentration at which inhibitory effect of cellular proliferation was observed, converted (LoVo, corresponds to 1.7 mM)	concentration at which inhibitory effect of cellular proliferation was observed (LoVo, tested at 0.017, 0.17 and 1.7 mM, FIG. 4)
O=c1cc(-c2ccc(O)c(O)c2)oc2c(C3OC(CO)C(O)C(O)C3OC3OCC(O)C(O)C3O)c(O)cc(O)c12 (single isomer, unassigned; peak 1) [peak 1, 2″-O-β-O arabinopyranoside orientin (orientin traces)]	only a weak antineoplastic activity		
COc1cc(O)c2c(=O)cc(-c3ccc(O)c(O)c3)oc2c1C1OC(CO)C(O)C(O)C1OC1OCC(O)C(O)C1O (single isomer, unassigned; peak 2) [peak 2, isowertiajaponine (7-O-methyl orientin-2″-O-arabinopiranoside)]	only a weak antineoplastic activity	1000 µg/mL	1.7 mM
